{"source": "patent EP0429304A2", "about": "“Pyridone-carboxylic acid derivatives and their use as veterinary medicines” (SHIONOGI SEIYAKU KABUSHIKI KAISHA trading under the name of …, priority 1989, dated 1991)", "key": {"[1]": {"tested_on": "Streptococcus sp (Str.sp) SNO6119", "assay": "In vitro sensitivity test", "type": "cell-based", "details": "25°C, 40 to 48 hours"}, "[2]": {"tested_on": "Pasteurella piscicida (P.pis) No. 2", "assay": "In vitro sensitivity test", "type": "cell-based", "details": "25°C, 40 to 48 hours", "summary_of_the_method": "(§1)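 Bacteria were of animal origin. MS strains were grown by liquid dilution in Frey medium with 12 % pig-serum and 0.01 % βNAD at 37°C for 7 days. S.au was tested by agar dilution on Mueller Hinton agar, 37°C for 20 to 24 hours. P.pis was grown on 1.5 % NaCl heart infusion agar at 25°C for 40 to 48 hours.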"}, "[3]": {"tested_on": "TS-resistant strain of MG", "type": "in vivo, chicken", "details": "for Infectious index Left air sack + / Infectious index Left air sack ++ / Infectious index Left air sack +++ / Infectious index Left air sack - / Infectious index Right air sack + / Infectious index Right air sack ++ / Infectious index Right air sack +++ / Infectious index Right air sack -: count of fowl; for Infectious index Left air sack + / Infectious index Left air sack ++ / Infectious index Left air sack +++ / Infectious index Left air sack - / Infectious index Right air sack + / Infectious index Right air sack ++ / Infectious index Right air sack +++ / Infectious index Right air sack - / Number of fowl having air sack lesions: 10-days chicken, 1.2 x 10³ CFU/fowl"}, "[4]": {"tested_on": "Salmonella typhimurium (S.typhi) 13311", "assay": "In vitro sensitivity test (agar dilution method)", "type": "cell-based", "details": "37°C, 20 to 24 hours"}, "[5]": {"tested_on": "Escherichia coli (E.coli) JC-2", "assay": "In vitro sensitivity test (agar dilution method)", "type": "cell-based", "details": "37°C, 20 to 24 hours"}, "[6]": {"tested_on": "Staphylococcus aureus (S.au) 209P", "assay": "In vitro sensitivity test (agar dilution method)", "type": "cell-based", "details": "37°C, 20 to 24 hours", "summary_of_the_method": "(§2)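 MS (liquid dilution): Frey medium + 12 % pig-serum + 0.01 % βNAD, 37°C, 7 days. S.au (agar dilution): Mueller Hinton agar, 37°C, 20 to 24 hours. P.pis: heart infusion agar + 1.5 % NaCl, 25°C, 40 to 48 hours. All strains animal-origin.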"}, "[7]": {"tested_on": "Hemophilus paragallinarum (H.pg) 221", "assay": "In vitro sensitivity test (agar dilution method)", "type": "cell-based", "details": "agar dilution, 37°C, 20 hours, 10 % CO₂"}, "[8]": {"tested_on": "Hemophilus pleuropneumonia (H.pp) M-1", "assay": "In vitro sensitivity test (agar dilution method)", "type": "cell-based", "details": "37°C, 20 hours, 10 % CO₂"}, "[9]": {"tested_on": "Bordetella bronchiseptica (B.br) ABU-1", "assay": "In vitro sensitivity test (agar dilution method)", "type": "cell-based", "details": "37°C, 20 to 24 hours"}, "[10]": {"tested_on": "Escherichia coli (E.coli) E-17, chicken-origin strain isolated from the field", "assay": "In vitro sensitivity test (agar dilution method)", "type": "cell-based", "details": "37°C, 20 to 24 hours", "summary_of_the_method": "as §2"}, "[11]": {"tested_on": "Hemophilus paragallinarum (H.pg) S-1", "assay": "In vitro sensitivity test (agar dilution method)", "type": "cell-based", "details": "agar dilution, 37°C, 20 hours, 10 % CO₂"}, "[12]": {"tested_on": "Mycoplasma hyopneumoniae (Mh) ST-11", "assay": "In vitro sensitivity test (liquid dilution method)", "type": "cell-based", "details": "37°C, 7 days"}, "[13]": {"tested_on": "Mycoplasma gallisepticum (MG) S6", "assay": "In vitro sensitivity test (liquid dilution method)", "type": "cell-based", "details": "37°C, 7 days"}, "[14]": {"tested_on": "Mycoplasma gallisepticum (MG) T-7-T, TS-resistant strain isolated from the field", "assay": "In vitro sensitivity test (liquid dilution method)", "type": "cell-based", "details": "37°C, 7 days"}, "[15]": {"tested_on": "Mycoplasma synoviae (MS) F10-2as", "assay": "In vitro sensitivity test (liquid dilution method)", "type": "cell-based", "details": "37°C, 7 days", "summary_of_the_method": "as §1"}, "[16]": {"tested_on": "Mycoplasma synoviae (MS) 1853", "assay": "In vitro sensitivity test (liquid dilution method)", "type": "cell-based", "details": "37°C, 7 days", "summary_of_the_method": "as §1"}, "[17]": {"tested_on": "TS-resistant MG", "assay": "Experimental MG infection to chicken, through bait", "type": "in vivo"}, "[18]": {"details": "count of fowl, bait 1100 ppm/Day, 9-days chicken, 1.8 x 10³ CFU/fowl"}}, "note": "Like-named read-outs stand apart in the source and are kept apart here.", "data": [{"compound": "NC[C@@]12CCC[C@@H]1CN(c1cc3c(cc1F)c(=O)c(C(=O)O)cn3C1CC1)C2", "note": "(relative stereo) [I-8, 7-[(1R*,5S*)-1-aminomethyl-3-azabicyclo[3.3.0]octan-3-yl]-1-cyclopropyl-6-fluoro-1,4-dihydro-4-oxo-3-quinolinecarboxylic acid]", "values": [{"measurement": "In vitro Sensitivity Test Str.sp SNO6119", "setting": "[1]", "result": 0.78, "unit": "µg/mL"}, {"measurement": "In vitro Sensitivity Test P.pis No. 2", "setting": "[2]", "result": 0.78, "unit": "µg/mL"}, {"measurement": "Infectious index Left air sack +", "setting": "[3]; oral 1.56 mg/kg", "result": 0}, {"measurement": "Infectious index Left air sack ++", "setting": "[3]; oral 1.56 mg/kg", "result": 0}, {"measurement": "Infectious index Left air sack +++", "setting": "[3]; oral 1.56 mg/kg", "result": 0}, {"measurement": "Infectious index Left air sack -", "setting": "[3]; oral 1.56 mg/kg", "result": 5}, {"measurement": "Infectious index Right air sack +", "setting": "[3]; oral 1.56 mg/kg", "result": 3}, {"measurement": "Infectious index Right air sack ++", "setting": "[3]; oral 1.56 mg/kg", "result": 2}, {"measurement": "Infectious index Right air sack +++", "setting": "[3]; oral 1.56 mg/kg", "result": 0}, {"measurement": "Infectious index Right air sack -", "setting": "[3]; oral 1.56 mg/kg", "result": 0}, {"measurement": "Infectious index Left air sack +", "setting": "[3]; oral 3.13 mg/kg", "result": 0}, {"measurement": "Infectious index Left air sack ++", "setting": "[3]; oral 3.13 mg/kg", "result": 0}, {"measurement": "Infectious index Left air sack +++", "setting": "[3]; oral 3.13 mg/kg", "result": 0}, {"measurement": "Infectious index Left air sack -", "setting": "[3]; oral 3.13 mg/kg", "result": 5}, {"measurement": "Infectious index Right air sack +", "setting": "[3]; oral 3.13 mg/kg", "result": 1}, {"measurement": "Infectious index Right air sack ++", "setting": "[3]; oral 3.13 mg/kg", "result": 0}, {"measurement": "Infectious index Right air sack +++", "setting": "[3]; oral 3.13 mg/kg", "result": 0}, {"measurement": "Infectious index Right air sack -", "setting": "[3]; oral 3.13 mg/kg", "result": 4}, {"measurement": "Infectious index Left air sack +", "setting": "[3]; oral 6.25 mg/kg", "result": 0}, {"measurement": "Infectious index Left air sack ++", "setting": "[3]; oral 6.25 mg/kg", "result": 0}, {"measurement": "Infectious index Left air sack +++", "setting": "[3]; oral 6.25 mg/kg", "result": 0}, {"measurement": "Infectious index Left air sack -", "setting": "[3]; oral 6.25 mg/kg", "result": 5}, {"measurement": "Infectious index Right air sack +", "setting": "[3]; oral 6.25 mg/kg", "result": 0}, {"measurement": "Infectious index Right air sack ++", "setting": "[3]; oral 6.25 mg/kg", "result": 0}, {"measurement": "Infectious index Right air sack +++", "setting": "[3]; oral 6.25 mg/kg", "result": 0}, {"measurement": "Infectious index Right air sack -", "setting": "[3]; oral 6.25 mg/kg", "result": 5}, {"measurement": "antimicrobial activity compared with ERFX", "setting": "[3]; in vivo, po", "result": "two times more effective than ERFX"}, {"measurement": "Number of fowl having air sack lesions", "setting": "[3]; oral 1.56 mg/kg", "result": 5}, {"measurement": "Number of fowl having air sack lesions", "setting": "[3]; oral 3.13 mg/kg", "result": 1}, {"measurement": "Number of fowl having air sack lesions", "setting": "[3]; oral 6.25 mg/kg", "result": 0}, {"measurement": "complete inihibition of the lesions in air sac at a concentration of", "setting": "[3]; oral administration, MG-infected chicken", "result": "about 3.13 mg/kg"}, {"measurement": "In vitro Sensitivity Test S.typhi 13311", "setting": "[4]", "result": 0.2, "unit": "µg/mL"}, {"measurement": "In vitro Sensitivity Test E.coli JC-2", "setting": "[5]", "result": 0.05, "unit": "µg/mL"}, {"measurement": "In vitro Sensitivity Test S.au 209P", "setting": "[6]", "result": "<0.0125", "unit": "µg/mL"}, {"measurement": "In vitro Sensitivity Test H.pg 221", "setting": "[7]", "result": 0.2, "unit": "µg/mL"}, {"measurement": "In vitro Sensitivity Test H.pp M-1", "setting": "[8]", "result": 0.05, "unit": "µg/mL"}, {"measurement": "In vitro Sensitivity Test B.br ABU-1", "setting": "[9]", "result": 1.56, "unit": "µg/mL"}, {"measurement": "In vitro Sensitivity Test E.coli E-17", "setting": "[10]", "result": 0.05, "unit": "µg/ml"}, {"measurement": "In vitro Sensitivity Test H.pg S-1", "setting": "[11]", "result": 0.2, "unit": "µg/mL"}, {"measurement": "In vitro Sensitivity Test Mh ST-11", "setting": "[12]", "result": "<0.025", "unit": "µg/mL"}, {"measurement": "In vitro Sensitivity Test MG S6", "setting": "[13]", "result": "<0.00313", "unit": "µg/mL"}, {"measurement": "In vitro Sensitivity Test MG T-7-T", "setting": "[14]", "result": 0.00625, "unit": "µg/mL"}, {"measurement": "In vitro Sensitivity Test MS F10-2as", "setting": "[15]", "result": 0.1, "unit": "µg/ml"}, {"measurement": "In vitro Sensitivity Test MS 1853", "setting": "[16]", "result": 0.1, "unit": "µg/mL"}]}, {"compound": "Tylosin® [TSP, reference compound]", "values": [{"measurement": "In vitro Sensitivity Test S.typhi 13311", "setting": "[4]", "result": 0.39, "unit": "µg/mL"}, {"measurement": "In vitro Sensitivity Test E.coli JC-2", "setting": "[5]", "result": 25.0, "unit": "µg/mL"}, {"measurement": "In vitro Sensitivity Test S.au 209P", "setting": "[6]", "result": 0.39, "unit": "µg/mL"}, {"measurement": "In vitro Sensitivity Test H.pp M-1", "setting": "[8]", "result": 25.0, "unit": "µg/mL"}, {"measurement": "In vitro Sensitivity Test Mh ST-11", "setting": "[12]", "result": 0.1, "unit": "µg/mL"}, {"measurement": "In vitro Sensitivity Test MG S6", "setting": "[13]", "result": 0.05, "unit": "µg/mL"}, {"measurement": "In vitro Sensitivity Test MG T-7-T", "setting": "[14]", "result": 6.25, "unit": "µg/mL"}, {"measurement": "In vitro Sensitivity Test MS F10-2as", "setting": "[15]", "result": 0.1, "unit": "µg/ml"}, {"measurement": "In vitro Sensitivity Test MS 1853", "setting": "[16]", "result": 0.1, "unit": "µg/mL"}, {"measurement": "Number of fowl having air sack lesions", "setting": "[17]; bait 1100 ppm/Day, 9-days chicken, 1.8 x 10³ CFU/fowl", "result": 5}, {"measurement": "Infectious index Left air sack +", "setting": "[17]; [18]", "result": 1}, {"measurement": "Infectious index Left air sack ++", "setting": "[17]; [18]", "result": 0}, {"measurement": "Infectious index Left air sack +++", "setting": "[17]; [18]", "result": 0}, {"measurement": "Infectious index Left air sack -", "setting": "[17]; [18]", "result": 4}, {"measurement": "Infectious index Right air sack +", "setting": "[17]; [18]", "result": 3}, {"measurement": "Infectious index Right air sack ++", "setting": "[17]; [18]", "result": 2}, {"measurement": "Infectious index Right air sack +++", "setting": "[17]; [18]", "result": 0}, {"measurement": "Infectious index Right air sack -", "setting": "[17]; [18]", "result": 0}, {"measurement": "inhibition of lesions in air sacs", "setting": "[17]; through bait, 1100 ppm", "result": "could not inhibit lesions in air sacs"}]}]}
